From patent publication US11117892B2, “Pyrrolo-pyridine derivative compound, method for preparing same, and pharmaceutical composition containing same as active ingredient for prevention or treatment of protein kinase-related diseases” (DAEGU-GYEONGBUK MEDICAL INNOVATION FOUNDATION, priority 2017, dated 2021)

Legend:
Test in all cases: scanMAX Kinase assay panel
Assay type in all cases: binding
Details in all cases: read-out: % control
[1] = biological target: ABL1(M351T)-phosphorylated (Homo sapiens (Human), UniProt P00519, M351T)
In short: (§1)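 scanMAX kinase panel screen. Normalisation: (cpd − pos ctrl)/(neg ctrl − pos ctrl) × 100. Neg ctrl is DMSO (100%); pos ctrl gives 0%.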

[2] = biological target: ABL1(Q252H)-nonphosphorylated (Homo sapiens (Human), UniProt P00519, Q252H)
In short: as §1

[3] = biological target: ABL1(Q252H)-phosphorylated (Homo sapiens (Human), UniProt P00519, Q252H)
In short: as §1

[4] = biological target: ABL1(Y253F)-phosphorylated (Homo sapiens (Human), UniProt P00519, Y253F)
In short: as §1

ACVRL1 = ACVRL1 (Homo sapiens (Human), UniProt P37023)
ACVRL1, sequence (P37023 22-503): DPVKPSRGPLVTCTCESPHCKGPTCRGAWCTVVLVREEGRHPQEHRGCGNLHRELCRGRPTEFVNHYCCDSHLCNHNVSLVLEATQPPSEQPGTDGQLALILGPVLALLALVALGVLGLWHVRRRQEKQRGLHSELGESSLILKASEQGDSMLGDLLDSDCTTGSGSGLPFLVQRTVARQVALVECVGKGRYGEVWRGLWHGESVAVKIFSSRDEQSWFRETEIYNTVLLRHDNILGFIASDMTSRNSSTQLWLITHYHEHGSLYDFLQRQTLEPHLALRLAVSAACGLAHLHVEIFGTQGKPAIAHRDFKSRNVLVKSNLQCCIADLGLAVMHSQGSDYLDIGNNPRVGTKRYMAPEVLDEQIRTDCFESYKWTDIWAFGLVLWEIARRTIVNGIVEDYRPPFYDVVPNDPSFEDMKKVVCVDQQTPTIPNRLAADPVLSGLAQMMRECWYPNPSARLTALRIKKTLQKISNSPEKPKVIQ
In short: as §1

ANKK1 = ANKK1 (Homo sapiens (Human), UniProt Q8NFD2)
ANKK1, sequence (Q8NFD2 whole entry): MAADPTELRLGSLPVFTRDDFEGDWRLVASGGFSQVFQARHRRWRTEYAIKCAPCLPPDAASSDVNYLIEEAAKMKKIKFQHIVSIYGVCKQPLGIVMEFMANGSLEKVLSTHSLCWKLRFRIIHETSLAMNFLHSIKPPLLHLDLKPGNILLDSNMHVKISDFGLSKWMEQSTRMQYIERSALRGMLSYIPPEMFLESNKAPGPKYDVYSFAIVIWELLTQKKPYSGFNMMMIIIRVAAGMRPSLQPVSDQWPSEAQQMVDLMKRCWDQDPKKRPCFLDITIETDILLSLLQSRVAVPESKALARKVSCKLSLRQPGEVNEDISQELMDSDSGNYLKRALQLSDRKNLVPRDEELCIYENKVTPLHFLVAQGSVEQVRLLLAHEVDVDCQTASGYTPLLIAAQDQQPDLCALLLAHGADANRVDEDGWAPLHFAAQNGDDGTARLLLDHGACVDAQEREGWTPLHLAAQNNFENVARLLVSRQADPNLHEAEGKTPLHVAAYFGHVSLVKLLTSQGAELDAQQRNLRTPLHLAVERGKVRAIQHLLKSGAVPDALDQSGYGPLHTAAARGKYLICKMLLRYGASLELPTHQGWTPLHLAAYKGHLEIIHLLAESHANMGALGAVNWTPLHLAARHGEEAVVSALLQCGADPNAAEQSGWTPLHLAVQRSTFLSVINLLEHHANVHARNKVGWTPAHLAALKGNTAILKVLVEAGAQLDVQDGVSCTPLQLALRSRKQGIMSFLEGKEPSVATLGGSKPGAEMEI
In short: as §1

BMPR1B = BMPR1B (Homo sapiens (Human), UniProt O00238)
In short: as §1

BRAF = BRAF (Homo sapiens (Human), UniProt P15056)
In short: as §1

CDC2L2 = CDC2L2 (Homo sapiens (Human), UniProt Q9UQ88)
In short: as §1

CSK = CSK (Homo sapiens (Human), UniProt P41240)
In short: as §1

CSNK2A2 = CSNK2A2 (Homo sapiens (Human), UniProt P19784)
In short: as §1

DAPK1 = DAPK1 (Homo sapiens (Human), UniProt P53355)
In short: as §1

DAPK2 = DAPK2 (Homo sapiens (Human), UniProt Q9UIK4)
In short: as §1

DCAMKL2 = DCAMKL2 (Homo sapiens (Human), UniProt Q8N568)
DCAMKL2, sequence (Q8N568 whole entry, looked up): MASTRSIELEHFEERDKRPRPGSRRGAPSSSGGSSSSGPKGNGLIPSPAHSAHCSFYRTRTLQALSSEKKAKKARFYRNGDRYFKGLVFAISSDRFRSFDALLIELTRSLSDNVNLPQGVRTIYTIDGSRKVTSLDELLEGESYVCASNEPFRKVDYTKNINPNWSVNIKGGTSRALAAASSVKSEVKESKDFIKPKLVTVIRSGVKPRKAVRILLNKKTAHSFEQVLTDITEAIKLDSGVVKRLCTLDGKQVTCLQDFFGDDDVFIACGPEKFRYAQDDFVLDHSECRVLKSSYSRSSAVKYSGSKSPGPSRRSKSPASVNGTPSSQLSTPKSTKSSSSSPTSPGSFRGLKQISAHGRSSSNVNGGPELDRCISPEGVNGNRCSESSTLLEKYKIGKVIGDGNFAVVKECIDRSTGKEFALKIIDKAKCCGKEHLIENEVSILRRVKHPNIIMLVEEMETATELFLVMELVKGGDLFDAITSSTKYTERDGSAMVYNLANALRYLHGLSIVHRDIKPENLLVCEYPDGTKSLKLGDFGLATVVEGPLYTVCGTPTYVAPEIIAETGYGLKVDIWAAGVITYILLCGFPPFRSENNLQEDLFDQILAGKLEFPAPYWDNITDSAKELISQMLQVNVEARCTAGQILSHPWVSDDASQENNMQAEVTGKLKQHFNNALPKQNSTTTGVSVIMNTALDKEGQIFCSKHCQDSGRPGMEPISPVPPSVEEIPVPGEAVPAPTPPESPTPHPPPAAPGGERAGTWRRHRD
In short: as §1

EGFR(L858R, T790M) = EGFR(L858R, T790M) (Homo sapiens (Human), UniProt P00533, L858R/T790M)
In short: as §1

EGFR(S752-I759del) = EGFR(S752-I759del) (Homo sapiens (Human), UniProt P00533, DEL752-759)
In short: as §1

ERBB2 = ERBB2 (Homo sapiens (Human), UniProt P04626)
ERBB2, sequence (P04626 23-1255): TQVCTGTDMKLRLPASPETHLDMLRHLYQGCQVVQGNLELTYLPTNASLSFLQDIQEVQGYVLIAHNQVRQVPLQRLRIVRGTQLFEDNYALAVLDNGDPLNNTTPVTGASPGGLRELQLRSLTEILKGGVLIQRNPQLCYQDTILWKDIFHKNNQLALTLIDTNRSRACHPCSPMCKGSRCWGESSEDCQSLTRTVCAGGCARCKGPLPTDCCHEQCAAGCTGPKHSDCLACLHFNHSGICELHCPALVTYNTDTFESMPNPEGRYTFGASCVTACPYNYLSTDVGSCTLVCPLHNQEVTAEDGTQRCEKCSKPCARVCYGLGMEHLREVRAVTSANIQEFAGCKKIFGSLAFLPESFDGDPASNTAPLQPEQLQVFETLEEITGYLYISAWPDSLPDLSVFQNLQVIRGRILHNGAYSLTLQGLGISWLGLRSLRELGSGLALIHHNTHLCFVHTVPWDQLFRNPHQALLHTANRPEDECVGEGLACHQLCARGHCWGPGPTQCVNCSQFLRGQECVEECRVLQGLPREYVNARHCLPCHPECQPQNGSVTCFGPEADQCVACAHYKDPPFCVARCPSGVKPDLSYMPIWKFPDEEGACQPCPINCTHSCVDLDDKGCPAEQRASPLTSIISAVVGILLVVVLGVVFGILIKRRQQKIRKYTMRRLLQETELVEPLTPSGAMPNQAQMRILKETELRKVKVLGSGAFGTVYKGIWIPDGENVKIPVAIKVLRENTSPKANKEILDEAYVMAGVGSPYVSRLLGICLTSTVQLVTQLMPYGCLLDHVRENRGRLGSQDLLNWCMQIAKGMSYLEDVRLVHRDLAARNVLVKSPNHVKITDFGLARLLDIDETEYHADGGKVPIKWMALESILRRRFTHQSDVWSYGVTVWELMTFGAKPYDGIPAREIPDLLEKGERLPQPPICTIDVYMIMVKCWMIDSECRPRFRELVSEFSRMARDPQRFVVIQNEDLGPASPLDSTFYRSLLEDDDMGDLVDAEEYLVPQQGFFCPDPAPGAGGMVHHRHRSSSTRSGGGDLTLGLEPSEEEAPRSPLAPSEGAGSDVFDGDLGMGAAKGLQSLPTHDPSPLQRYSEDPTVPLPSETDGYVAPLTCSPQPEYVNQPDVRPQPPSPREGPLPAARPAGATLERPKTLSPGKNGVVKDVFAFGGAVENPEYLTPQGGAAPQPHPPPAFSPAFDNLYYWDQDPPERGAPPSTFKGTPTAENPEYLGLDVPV
In short: as §1

INSRR = INSRR (Homo sapiens (Human), UniProt P14616)
In short: as §1

MAP3K3 = MAP3K3 (Homo sapiens (Human), UniProt Q99759)
In short: as §1

MARK4 = MARK4 (Homo sapiens (Human), UniProt Q96L34)
In short: as §1

MAST1 = MAST1 (Homo sapiens (Human), UniProt Q9Y2H9)
In short: as §1

MEK1 = MEK1 (Homo sapiens (Human), UniProt Q02750)
MEK1, sequence (Q02750 whole entry): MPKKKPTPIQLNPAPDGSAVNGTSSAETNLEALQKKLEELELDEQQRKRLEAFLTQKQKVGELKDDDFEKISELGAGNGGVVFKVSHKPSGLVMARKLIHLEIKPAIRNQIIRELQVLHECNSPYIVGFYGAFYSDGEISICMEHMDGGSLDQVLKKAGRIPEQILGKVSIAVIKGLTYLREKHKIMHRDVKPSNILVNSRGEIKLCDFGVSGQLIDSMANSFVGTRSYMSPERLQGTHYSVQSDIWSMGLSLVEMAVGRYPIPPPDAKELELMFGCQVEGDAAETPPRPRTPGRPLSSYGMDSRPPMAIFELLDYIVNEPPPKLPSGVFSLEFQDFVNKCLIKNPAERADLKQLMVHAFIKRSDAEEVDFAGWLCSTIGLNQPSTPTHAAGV
In short: as §1

MLK1 = MLK1 (Homo sapiens (Human), UniProt P80192)
In short: as §1

MRCKB = MRCKB (Homo sapiens (Human), UniProt Q9Y5S2)
In short: as §1

MYLK4 = MYLK4 (Homo sapiens (Human), UniProt Q86YV6)
In short: as §1

PIK3CG = PIK3CG (Homo sapiens (Human), UniProt P48736)
In short: as §1

PIP5K1C = PIP5K1C (Homo sapiens (Human), UniProt O60331)
In short: as §1

[5] = biological target: RPS6KA5(Kin.Dom.2-C-terminal) (Homo sapiens (Human), UniProt O75582)
RPS6KA5(Kin.Dom.2-C-terminal), sequence (O75582 426-687): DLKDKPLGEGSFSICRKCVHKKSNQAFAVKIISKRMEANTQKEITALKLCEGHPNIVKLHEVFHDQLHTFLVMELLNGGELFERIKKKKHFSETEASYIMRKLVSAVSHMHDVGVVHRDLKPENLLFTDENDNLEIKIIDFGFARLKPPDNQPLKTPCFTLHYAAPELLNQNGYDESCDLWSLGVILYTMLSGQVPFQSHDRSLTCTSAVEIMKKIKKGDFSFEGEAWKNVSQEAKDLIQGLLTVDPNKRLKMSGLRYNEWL
In short: as §1

[6] = biological target: RSK1(Kin.Dom.1-N-terminal) (Homo sapiens (Human), UniProt Q15418)
In short: as §1

[7] = biological target: RSK2(Kin.Dom.2-C-terminal) (Homo sapiens (Human), UniProt P51812)
RSK2(Kin.Dom.2-C-terminal), sequence (P51812 422-679): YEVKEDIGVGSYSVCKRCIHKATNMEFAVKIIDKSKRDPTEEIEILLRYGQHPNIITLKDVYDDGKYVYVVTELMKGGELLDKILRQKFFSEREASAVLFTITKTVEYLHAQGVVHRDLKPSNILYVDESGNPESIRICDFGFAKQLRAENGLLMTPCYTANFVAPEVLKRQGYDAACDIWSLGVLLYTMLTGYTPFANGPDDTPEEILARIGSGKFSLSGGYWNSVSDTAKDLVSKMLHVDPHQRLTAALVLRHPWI
In short: as §1

[8] = biological target: RSK3(Kin.Dom.1-N-terminal) (Homo sapiens (Human), UniProt Q15349)
In short: as §1

SIK = SIK (Homo sapiens (Human), UniProt P57059)
SIK, sequence (P57059 whole entry): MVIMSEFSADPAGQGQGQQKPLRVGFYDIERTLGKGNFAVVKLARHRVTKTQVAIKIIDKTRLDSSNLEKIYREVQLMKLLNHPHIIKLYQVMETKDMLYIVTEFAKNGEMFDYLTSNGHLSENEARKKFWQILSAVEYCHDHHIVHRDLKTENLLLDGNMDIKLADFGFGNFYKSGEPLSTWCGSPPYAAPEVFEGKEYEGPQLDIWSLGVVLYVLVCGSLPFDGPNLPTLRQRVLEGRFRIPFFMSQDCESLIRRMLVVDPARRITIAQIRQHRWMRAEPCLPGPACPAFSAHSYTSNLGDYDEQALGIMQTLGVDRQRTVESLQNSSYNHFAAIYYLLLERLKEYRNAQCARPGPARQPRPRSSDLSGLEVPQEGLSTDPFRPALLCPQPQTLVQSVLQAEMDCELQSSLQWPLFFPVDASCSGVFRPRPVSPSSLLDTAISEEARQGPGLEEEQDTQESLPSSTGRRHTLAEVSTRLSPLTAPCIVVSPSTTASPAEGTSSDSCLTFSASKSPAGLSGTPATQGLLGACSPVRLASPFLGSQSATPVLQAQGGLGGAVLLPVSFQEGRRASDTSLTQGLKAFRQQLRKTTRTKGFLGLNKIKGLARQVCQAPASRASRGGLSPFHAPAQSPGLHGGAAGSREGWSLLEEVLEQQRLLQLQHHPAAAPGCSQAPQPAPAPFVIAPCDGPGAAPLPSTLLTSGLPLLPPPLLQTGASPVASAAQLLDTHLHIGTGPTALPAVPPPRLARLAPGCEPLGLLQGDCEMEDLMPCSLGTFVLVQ
In short: as §1

SRPK3 = SRPK3 (Homo sapiens (Human), UniProt Q9UPE1)
In short: as §1

TAOK1 = TAOK1 (Homo sapiens (Human), UniProt Q7L7X3)
In short: as §1

TAOK3 = TAOK3 (Homo sapiens (Human), UniProt Q9H2K8)
In short: as §1

TEC = TEC (Homo sapiens (Human), UniProt P42680)
In short: as §1

TSSK1B = TSSK1B (Homo sapiens (Human), UniProt Q9BXA7)
In short: as §1

p38-delta = p38-delta (Homo sapiens (Human), UniProt O15264)
In short: as §1

Structure (SMILES) | remaining binding at 1 µM [1] [%] | remaining binding at 1 µM [2] [%] | remaining binding at 1 µM [3] [%] | remaining binding at 1 µM [4] [%] | remaining binding at 1 µM (ACVRL1) [%] | remaining binding at 1 µM (ANKK1) [%] | remaining binding at 1 µM (BMPR1B) [%] | remaining binding at 1 µM (BRAF) [%] | remaining binding at 1 µM (CDC2L2) [%] | remaining binding at 1 µM (CSK) [%] | remaining binding at 1 µM (CSNK2A2) [%] | remaining binding at 1 µM (DAPK1) [%] | remaining binding at 1 µM (DAPK2) [%] | remaining binding at 1 µM (DCAMKL2) [%] | remaining binding at 1 µM (EGFR(L858R, T790M)) [%] | remaining binding at 1 µM (EGFR(S752-I759del)) [%] | remaining binding at 1 µM (ERBB2) [%] | remaining binding at 1 µM (INSRR) [%] | remaining binding at 1 µM (MAP3K3) [%] | remaining binding at 1 µM (MARK4) [%] | further results
CCNc1cc(Nc2ccc(C(=O)N3CCC(N4CCOCC4)CC3)cc2OC)nc2[nH]cc(C(F)(F)F)c12 [Example 57, (4-((4-(ethylamino)-3-(trifluoromethyl)-1H-pyrrolo[2,3-b]pyridin-6-yl)amino)-3-methoxyphenyl) (4-morpholinopiperidin-1-yl)methanone] | 98 | 54 | 100 | 100 | 89 | 100 | 100 | 98 | 88 | 76 | 80 | 70 | 71 | 79 | 73 | 75 | 73 | 60 | 75 | 76 | remaining binding at 1 µM (MAST1): 66%; remaining binding at 1 µM (MEK1): 100%; remaining binding at 1 µM (MLK1): 100%; remaining binding at 1 µM (MRCKB): 100%; remaining binding at 1 µM (MYLK4): 83%; remaining binding at 1 µM (PIK3CG): 87%; remaining binding at 1 µM (PIP5K1C): 69%; remaining binding at 1 µM [5]: 83%; remaining binding at 1 µM [6]: 76%; remaining binding at 1 µM [7]: 100%; remaining binding at 1 µM [8]: 75%; remaining binding at 1 µM (SIK): 90%; remaining binding at 1 µM (SRPK3): 100%; remaining binding at 1 µM (TAOK1): 100%; remaining binding at 1 µM (TAOK3): 100%; remaining binding at 1 µM (TEC): 92%; remaining binding at 1 µM (TSSK1B): 53%; remaining binding at 1 µM (p38-delta): 85%
CCNc1cc(Nc2ccc(C(=O)N3CCC(N4CCOCC4)CC3)cc2OC)nc2[nH]cc(C#N)c12 [Example 18, 4-(ethylamino)-6-((2-methoxy-4-(4-morpholinopiperidine-1-carbonyl)phenyl)amino)-1H-pyrrolo[2,3-b]pyridine-3-carbonitrile] | 100 | 95 | 100 | 89 | 80 | 78 | 85 | 83 | 86 | 93 | 97 | 16 | 16 | 77 | 81 | 99 | 99 | 24 | 70 | 80 | remaining binding at 1 µM (MAST1): 93%; remaining binding at 1 µM (MEK1): 19%; remaining binding at 1 µM (MLK1): 100%; remaining binding at 1 µM (MRCKB): 92%; remaining binding at 1 µM (MYLK4): 88%; remaining binding at 1 µM (PIK3CG): 100%; remaining binding at 1 µM (PIP5K1C): 67%; remaining binding at 1 µM [5]: 10%; remaining binding at 1 µM [6]: 73%; remaining binding at 1 µM [7]: 100%; remaining binding at 1 µM [8]: 92%; remaining binding at 1 µM (SIK): 100%; remaining binding at 1 µM (SRPK3): 96%; remaining binding at 1 µM (TAOK1): 82%; remaining binding at 1 µM (TAOK3): 94%; remaining binding at 1 µM (TEC): 100%; remaining binding at 1 µM (TSSK1B): 34%; remaining binding at 1 µM (p38-delta): 99%
